The record followed here is patent US9861610B2, “Process for selective extraction of bioactive and bioavailable cinnamon polyphenols and procyanidin oligomers and a stable composition thereof” (AKAY FLAVOURS & AROMATICS PVT LTD., priority 2011, dated 2018).

The assay concerns streptozotocin induced diabetic rats. Briefly: Serum insulin levels (chemiluminescence method, human specific kit). The following applies: 30 days treatment.

For `COc1ccc(Cl)cc1C(=O)NCCc1ccc(S(=O)(=O)NC(=O)NC2CCCCC2)cc1` [Glibenclamide], the insulin levels is given as 0.4 μIU/ml.
